The subject of this assay is P388 leukemia ip, CD2F1 mice, survival T/C. In words: NCI In Vivo Anticancer Drug Screen. Data for tumor model P388 Leukemia (intraperitoneal) in CD2F1 (CDF1) mice. The settings on record: endpoint: median survival time, higher = longer survival. In short, it runs like this:
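Mice carrying the transplanted tumor received test compound or vehicle. Survival was recorded in each group, and the value is the treated-group measurement divided by that of the vehicle-treated control group.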

The mark [1] stands for this setting: dose: 50.0 mg/kg/injection, schedule: Q01DX009 (ip), vehicle: saline.
The mark [2] stands for this setting: dose: 100.0 mg/kg/injection, schedule: Q01DX009 (ip), vehicle: saline.
[3] abbreviates: dose: 200.0 mg/kg/injection, schedule: Q01DX009 (ip), vehicle: saline.
The mark [4] stands for this setting: dose: 100.0 mg/kg/injection, schedule: Q04DX002 (ip), vehicle: saline with Tween-80.
Where [5] appears, read: dose: 200.0 mg/kg/injection, schedule: Q04DX002 (ip), vehicle: saline with Tween-80.
Setting [6] is: dose: 400.0 mg/kg/injection, schedule: Q04DX002 (ip), vehicle: saline with Tween-80.
[7] abbreviates: dose: 50.0 mg/kg/injection, schedule: Q01DX005 (ip), vehicle: saline with Tween-80.
The mark [8] stands for this setting: dose: 60.0 mg/kg/injection, schedule: Q01DX005 (ip), vehicle: saline with Tween-80.
Setting [9] is: dose: 60.0 mg/kg/injection, schedule: Q01DX005 (ip), vehicle: saline.
Setting [10] is: dose: 120.0 mg/kg/injection, schedule: Q01DX005 (ip), vehicle: saline with Tween-80.
[11] abbreviates: dose: 120.0 mg/kg/injection, schedule: Q01DX005 (ip), vehicle: saline.
[12] abbreviates: dose: 240.0 mg/kg/injection, schedule: Q01DX005 (ip), vehicle: saline with Tween-80.
Setting [13] is: dose: 100.0 mg/kg/injection, schedule: Q04DX003 (ip), vehicle: Klucel (hydroxypropylcellulose) (HPC).
The mark [14] stands for this setting: dose: 50.0 mg/kg/injection, schedule: Q01DX009 (ip), vehicle: Klucel (hydroxypropylcellulose) (HPC).
The mark [15] stands for this setting: dose: 100.0 mg/kg/injection, schedule: Q01DX009 (ip), vehicle: Klucel (hydroxypropylcellulose) (HPC).
Setting [16] is: dose: 200.0 mg/kg/injection, schedule: Q01DX009 (ip), vehicle: Klucel (hydroxypropylcellulose) (HPC).

Values joined by “and” are separate entries in the source; they are usually repeats but may differ in a detail not shown here. Equal entries are not always repeated. Inconclusive results and toxic doses are left out.

The results in this text go back to PubChem BioAssay AID330 (DTP/NCI, 2004).

With `NCC(=O)CN.[Cl-].[Cl-].[Pt+2]`, the T/C (dose: 25.0 mg/kg/injection, schedule: Q04DX003 (ip), vehicle: other) was 121 % of control; the T/C (dose: 200.0 mg/kg/injection, schedule: Q04DX003 (ip), vehicle: other) was 158 % of control; the T/C (dose: 400.0 mg/kg/injection, schedule: Q04DX003 (ip), vehicle: other) was 177 % of control.

Regarding `c1cc[n+](CCC[n+]2ccccc2)cc1`, the T/C by setting is: under setting [1], 98 % of control; under setting [2], 97 % of control; under setting [3], 100 % of control.

Consider `C=CCC(C(=C)Sc1ccccc1)S(=O)(=O)c1ccccc1` (stereo unspecified), for which the T/C runs as follows: under setting [4], 115 % of control; under setting [5], 109 % of control; under setting [6], 105 % of control.

As to `O=C1NC2(CCCCC2)C(=O)N1CCN1C(=O)NC2(CCCCC2)C1=O`, the T/C was 104 % of control (dose: 0.75 mg/kg/injection, schedule: Q01DX009 (ip), vehicle: saline); 91 % of control (dose: 1.5 mg/kg/injection, schedule: Q01DX009 (ip), vehicle: saline); 106 % of control (dose: 3.0 mg/kg/injection, schedule: Q01DX009 (ip), vehicle: saline); 118 % of control (dose: 6.0 mg/kg/injection, schedule: Q01DX009 (ip), vehicle: saline); 106 % of control (dose: 12.0 mg/kg/injection, schedule: Q01DX009 (ip), vehicle: saline).

Regarding `C=C1C(=O)OC2CC3(C)OC3CC/C(C)=C/C(OC(C)=O)C12` (stereo unspecified), the T/C was 111 % of control (dose: 12.5 mg/kg/injection, schedule: Q01DX005 (ip), vehicle: saline with Tween-80); 111 % of control (dose: 25.0 mg/kg/injection, schedule: Q01DX005 (ip), vehicle: saline with Tween-80); 111 % of control and 112 % of control under setting [7].

With `OC1COC(Sc2ncc[nH]2)C(O)C1O` (stereo unspecified), the T/C under setting [8] is 97 % of control; the T/C under setting [9] is 96 % of control; the T/C under setting [10] was 97 % of control; the T/C under setting [11] is 97 % of control; the T/C under setting [12] is 94 % of control; the T/C (dose: 240.0 mg/kg/injection, schedule: Q01DX005 (ip), vehicle: saline) was 97 % of control.

`Fc1cccc(Cl)c1CSC(=S)N1CCSCC1`: the T/C is, setting by setting: under setting [8], 110 % of control; under setting [10], 105 % of control; under setting [12], 96 % of control.

With `c1cc(OCC2CO2)cc(OCC2CO2)c1` (stereo unspecified), the T/C by setting is: (dose: 3.12 mg/kg/injection, schedule: Q01DX009 (ip), vehicle: DMSO) 88 % of control; (dose: 6.25 mg/kg/injection, schedule: Q01DX009 (ip), vehicle: DMSO) 88 % of control; (dose: 12.5 mg/kg/injection, schedule: Q01DX009 (ip), vehicle: DMSO) 100 % of control; (dose: 25.0 mg/kg/injection, schedule: Q01DX009 (ip), vehicle: DMSO) 104 % of control and 96 % of control; (dose: 50.0 mg/kg/injection, schedule: Q01DX009 (ip), vehicle: DMSO) 104 % of control; (dose: 100.0 mg/kg/injection, schedule: Q01DX009 (ip), vehicle: DMSO) 95 % of control.

Take `O=S(=O)(Cc1ccccc1)C1CC1`: the T/C under setting [1] was 122 % of control; the T/C (dose: 50.0 mg/kg/injection, schedule: Q01DX009 (ip), vehicle: suspension in saline) is 104 % of control and 106 % of control; the T/C under setting [2] is 119 % of control; the T/C (dose: 100.0 mg/kg/injection, schedule: Q01DX009 (ip), vehicle: suspension in saline) was 108 % of control and 94 % of control; the T/C under setting [3] is 118 % of control; the T/C (dose: 200.0 mg/kg/injection, schedule: Q01DX009 (ip), vehicle: suspension in saline) was 102 % of control and 97 % of control. For the same compound, the T/C (dose: 400.0 mg/kg/injection, schedule: Q01DX009 (ip), vehicle: saline) was 102 % of control; the T/C (dose: 400.0 mg/kg/injection, schedule: Q01DX009 (ip), vehicle: suspension in saline) was 100 % of control and 105 % of control.

Take `COC(=O)c1cccc2c1N(C)c1c(cccc1C(=O)OC)CC2`: the T/C (dose: 50.0 mg/kg/injection, schedule: Q01DX009 (ip), vehicle: distilled water + Tween-80 + alcohol) was 93 % of control; the T/C (dose: 100.0 mg/kg/injection, schedule: Q01DX009 (ip), vehicle: distilled water + Tween-80 + alcohol) was 94 % of control; the T/C (dose: 200.0 mg/kg/injection, schedule: Q01DX009 (ip), vehicle: distilled water + Tween-80 + alcohol) is 99 % of control.

As for `Cc1ncc2c(n1)-c1ccccc1OC2O` (stereo unspecified), the T/C was 103 % of control under setting [1], 91 % of control under setting [2] and 100 % of control under setting [3].

In the case of `O=C(O)c1ccc2c(c1Cl)C(=O)c1ccccc1C2=O`, the T/C was 101 % of control (dose: 25.0 mg/kg/injection, schedule: Q04DX003 (ip), vehicle: Klucel (hydroxypropylcellulose) (HPC)); 101 % of control (dose: 50.0 mg/kg/injection, schedule: Q04DX003 (ip), vehicle: Klucel (hydroxypropylcellulose) (HPC)); 100 % of control under setting [13].

In the case of `Cn1cnc2ncnc(NCc3ccccc3Cl)c21`, the T/C was 93 % of control (dose: 6.25 mg/kg/injection, schedule: Q04DX003 (ip), vehicle: saline with Tween-80); 94 % of control (dose: 12.5 mg/kg/injection, schedule: Q04DX003 (ip), vehicle: saline with Tween-80); 94 % of control (dose: 25.0 mg/kg/injection, schedule: Q04DX003 (ip), vehicle: saline with Tween-80); 91 % of control (dose: 50.0 mg/kg/injection, schedule: Q04DX003 (ip), vehicle: saline with Tween-80).

Consider `CC(=O)N/N=C/C(C)(C)C(C)(C)/C=N/NC(C)=O`, for which, where the note is “dose: 120.0 mg/kg/injection, schedule: Q01DX005 (ip), vehicle: Klucel (hydroxypropylcellulose) (HPC)”, the T/C was 153 % of control.

For `COc1cc(-c2nnc(SCCN(C)C)o2)cc(OC)c1OC`, the T/C (dose: 50.0 mg/kg/injection, schedule: Q04DX002 (ip), vehicle: water) was 100 % of control; the T/C (dose: 100.0 mg/kg/injection, schedule: Q04DX002 (ip), vehicle: water) is 101 % of control; the T/C (dose: 200.0 mg/kg/injection, schedule: Q04DX002 (ip), vehicle: water) is 100 % of control.

Regarding `O=S(=O)(CCCl)c1ccccc1`, the T/C was 104 % of control under setting [13]; 106 % of control (dose: 200.0 mg/kg/injection, schedule: Q04DX003 (ip), vehicle: Klucel (hydroxypropylcellulose) (HPC)); 97 % of control (dose: 400.0 mg/kg/injection, schedule: Q04DX003 (ip), vehicle: Klucel (hydroxypropylcellulose) (HPC)).

As for `O=S1(=O)CC(c2ccccc2)=NN=C(c2ccccc2)C1`, the T/C under setting [14] was 93 % of control, the T/C under setting [15] is 93 % of control and the T/C under setting [16] was 88 % of control.

Regarding `COc1ccc(S(=O)(=O)N2OC2c2ccccc2)cc1` (stereo unspecified), the T/C is, setting by setting: under setting [14], 100 % of control; under setting [15], 100 % of control.

As to `O=C1c2ccccc2COC1c1ccccc1` (stereo unspecified), the T/C under setting [1] is 108 % of control, the T/C under setting [2] was 111 % of control and the T/C under setting [3] is 118 % of control.

For the compound `O=C(Nc1cccc2c1C(=O)c1c(NC(=O)c3ccccc3)ccc(Nc3cccc4c3C(=O)c3ccccc3C4=O)c1C2=O)c1ccccc1`, the T/C was 100 % of control under setting [7]; 103 % of control (dose: 100.0 mg/kg/injection, schedule: Q01DX005 (ip), vehicle: saline with Tween-80); 103 % of control (dose: 200.0 mg/kg/injection, schedule: Q01DX005 (ip), vehicle: saline with Tween-80).

In the case of `O=C(O)c1nn(-c2ccccc2)c2c1CS(=O)(=O)c1ccccc1-2`, the T/C reads like this: under setting [4], 100 % of control; under setting [5], 106 % of control; under setting [6], 104 % of control.

With `C#CCOC(=O)Nc1nc2ccc([N+](=O)[O-])cc2s1`, the T/C is 101 % of control under setting [14], 99 % of control under setting [15] and 92 % of control under setting [16].

Turning to `c1ccc(CN2COCO[C@H]3CCC[C@@H]32)cc1`, the T/C reads like this: (dose: 50.0 mg/kg/injection, schedule: Q01DX005 (ip), vehicle: Klucel (hydroxypropylcellulose) (HPC)) 107 % of control; (dose: 100.0 mg/kg/injection, schedule: Q01DX005 (ip), vehicle: Klucel (hydroxypropylcellulose) (HPC)) 104 % of control.

For the compound `C=CCOC(=O)OCCCO`, the T/C runs as follows: under setting [9], 105 % of control; under setting [11], 99 % of control.
